Results on five molecules are retold here after patent US20240279278A1, “NMU RECEPTOR 2 AGONISTS” (Boehringer Ingelheim International GmbH, priority 2023, published 2024).

What all share (assay type): cell-based
Test [1] deals with T1, human NMUR2 receptor (Homo sapiens, UniProt Q9GZQ4). The test is described as follows: IP1 Gq HTRF assay, activation of human NMUR2 in human plasma. On the set-up: expressed in transfected cells; host or cells: CHO-K1. To be noted: CHO-K1 cells expressing human NMUR2, 100% human plasma; read-out: EC50 (hNMUR2) human plasma. An excerpt:
Example 4: IP1 Gq HTRF Assay Activation of Human NMUR2 in Human Plasma Application of the Homogenous Time Resolved Fluorescence (HTRF) technology optimized for Gq coupled receptors has been described in detail in the Cisbio IP-One Gq kit manual. In brief, a FRET signal is generated between the donor label of an IP-One antibody (anti-IP1-Tb) and the acceptor label of a tagged IP-One (IP1-d2). Agonism of a Gq coupled receptor increases intracellular IP-One, which competes with labeled IP-One and leads to a reduction of the FRET signal. Frozen stocks of CHO-K1 cells stably expressing the human NMUR1 receptor or human NMUR2 receptor were thawed and 5000 cells were seeded in culture medium (HAM'S F12, 10% FCS) into each well of a 384-well assay plate. After seeding, cells were incubated for 24 h in a humidified incubator at 37° C. and 5% CO2. Next, cells were washed once with […] of wash buffer (20 mM Hepes, 1×HBSS, pH 7.4), followed by addition of […] (100% human plasma, 50 mM LiCl). Peptide agonists to be tested were dissolved in 100% DMSO and pre-diluted in plasma at a suitable concentration range for an 8 pt dose-response curve. 5 μL of peptide pre-dilution were then added to each well, followed by another 5 μL of plasma to give a final concentration of 1% DMSO. Samples were subsequently incubated for 1 hour in a humidified incubator at 37° C. The plasma solution was replaced by 20 μL of stimulation buffer. After addition of 5 μL each of IP1-d2 and anti-IP1-Tb, samples were incubated for another 1 hour at room temperature and FRET signals (ratio 665 nm/620 nm) were measured. EC50 values were calculated by nonlinear regression using a 4-parameter sigmoidal curve fit.
For orientation: In TR-FRET formats the signal depends on donor and acceptor labels being close together.

In test [2] the target is T2, human NMUR1 receptor (Homo sapiens, UniProt Q9HB89).
T2 construct: expressed in transfected cells; host or cells: CHO-K1
T2 sequence (Q9HB89 1-426): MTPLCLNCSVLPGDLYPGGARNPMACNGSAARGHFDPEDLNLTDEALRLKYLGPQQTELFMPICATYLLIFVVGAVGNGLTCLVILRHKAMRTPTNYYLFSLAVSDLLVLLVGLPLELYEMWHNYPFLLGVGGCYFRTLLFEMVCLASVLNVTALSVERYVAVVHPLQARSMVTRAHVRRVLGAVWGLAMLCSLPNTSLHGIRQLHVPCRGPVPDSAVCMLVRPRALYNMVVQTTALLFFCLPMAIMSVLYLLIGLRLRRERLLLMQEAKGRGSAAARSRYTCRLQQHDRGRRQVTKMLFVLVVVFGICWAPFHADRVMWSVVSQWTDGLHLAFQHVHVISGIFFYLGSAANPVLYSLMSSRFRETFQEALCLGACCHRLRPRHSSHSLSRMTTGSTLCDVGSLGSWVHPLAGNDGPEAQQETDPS
The test can be described thus: IP1 Gq HTRF assay, activation of human NMUR1 in buffer. To be noted: CHO-K1 cells expressing human NMUR1, stimulation buffer with 0.1% BSA; read-out: EC50 (hNMUR1) buffer. The source says: (§1) Example 3: IP1 Gq HTRF Assay Activation of Human NMUR2 or Human NMUR1 in Buffer Application of the Homogenous Time Resolved Fluorescence (HTRF) technology optimized for Gq coupled receptors has been described in detail in the Cisbio IP-One Gq kit manual. In brief, a FRET signal (FRET: fluorescence resonance energy transfer) is generated between the donor label of an IP-One antibody (anti-IP1-Tb) and the acceptor label of a tagged IP-One (IP1-d2). Agonism of a Gq coupled receptor increases intracellular IP-One, which competes with labeled IP-One and leads to a reduction of the FRET signal. Frozen stocks of CHO-K1 cells stably expressing the human NMUR1 or NMUR2 receptor were thawed and 5000 cells were seeded in culture medium (HAM'S F12, 10% FCS) into each well of a 384-well assay plate. After seeding, cells were incubated for 24 h in a humidified incubator at 37° C. and 5% CO2. Next, cells were washed once with 50 μL of wash buffer (20 mM Hepes, 1×HBSS, pH 7.4), followed by addition of either 10 μL of stimulation buffer (20 mM Hepes, 1×HBSS, 50 mM LiCl, 0.1% BSA, pH 7.4). Peptide agonists to be tested were dissolved in 100% DMSO and pre-diluted in stimulation buffer at a suitable concentration range for an 8 pt dose-response curve. 5 μL of peptide pre-dilution were then added to each well, followed by another 5 μL of stimulation buffer to give a final concentration of 1% DMSO. Samples were subsequently incubated for 1 hour in a humidified incubator at 37° C. After addition of 5 μL each of IP1-d2 and anti-IP1-Tb, samples were incubated for another 1 hour at room temperature and FRET signals (ratio 665 nm/620 nm) were measured. EC50 values were calculated by nonlinear regression using a 4-parameter sigmoidal curve fit.

The target of test [3] is T1, human NMUR2 receptor. The test is described as follows: IP1 Gq HTRF assay, activation of human NMUR2 in buffer. The conditions noted are these: CHO-K1 cells expressing human NMUR2, stimulation buffer with 0.1% BSA; read-out: EC50 (hNMUR2) buffer. On the set-up: expressed in transfected cells; host or cells: CHO-K1.
From the text: as §1

Residues, ends and D or L forms follow the SMILES beside them.

T1 sequence (Q9GZQ4 whole entry): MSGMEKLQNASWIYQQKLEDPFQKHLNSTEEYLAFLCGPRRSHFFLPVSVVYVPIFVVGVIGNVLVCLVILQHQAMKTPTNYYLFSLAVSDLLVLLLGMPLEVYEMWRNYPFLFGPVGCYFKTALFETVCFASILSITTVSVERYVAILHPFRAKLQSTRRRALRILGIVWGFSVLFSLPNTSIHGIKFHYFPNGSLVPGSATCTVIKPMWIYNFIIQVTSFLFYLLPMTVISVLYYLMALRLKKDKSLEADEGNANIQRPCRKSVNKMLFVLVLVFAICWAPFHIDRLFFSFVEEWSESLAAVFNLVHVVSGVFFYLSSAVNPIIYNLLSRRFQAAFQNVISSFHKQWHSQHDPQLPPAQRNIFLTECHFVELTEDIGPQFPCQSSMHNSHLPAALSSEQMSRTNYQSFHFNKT

In general, EC50 refers to the concentration giving half of the maximal effect. On to `CCCC[C@H](NC(=O)[C@H](CC(C)C)N(C)C(=O)[C@H](Cc1ccccc1)NC(=O)[C@H](Cc1ccc(O)cc1)NC(=O)CN1CCN(CCNC(=O)CN(C)C(=O)CN(C)C(=O)CN(C)C(=O)CN(C)C(=O)CN(C)C(=O)CN(C)C(=O)CN(C)C(=O)CN(C)C(=O)CN(C)C(=O)CN(C)C(=O)CN(C)C(=O)CN(C)C(=O)CN(C)C(=O)CN(C)C(=O)CN(C)C(=O)CC[C@H](NC(=O)CC[C@H](NC(=O)CC[C@H](NC(=O)CC[C@H](NC(=O)CCCCCCCCCCCCCCCCCCC(=O)O)C(=O)O)C(=O)O)C(=O)O)C(=O)O)CC1)C(=O)N[C@@H](CCCN)C(=O)N(C)[C@@H](C)C(=O)N[C@@H](CCCNC(=N)N)C(=O)NCC(N)=O` [Compound 14, C20DA-gGlu4-Sar15-AEPipAc-Tyr-Phe-NMeLeu-Nle-Orn-NMeAla-Arg-Gly-NH2] (HELM PEPTIDE1{[O=C(O)CCCCCCCCCCCCCCCCCCC(=O)[*:2]].[gGlu].[gGlu].[gGlu].[gGlu].[Sar].[Sar].[Sar].[Sar].[Sar].[Sar].[Sar].[Sar].[Sar].[Sar].[Sar].[Sar].[Sar].[Sar].[Sar].[O=C(CN1CCN(CCN[*:1])CC1)[*:2]].Y.F.[meL].[Nle].[Orn].[meA].R.G.[am]}$$$$V2.0), for which the EC50 stood at 10.3 nM in test [1], 1400 nM in test [2] and 2.9 nM in test [3].
On to `CCCC[C@H](NC(=O)[C@H](CC(C)C)N(C)C(=O)[C@H](Cc1ccccc1)NC(=O)[C@H](Cc1ccc(O)cc1)NC(=O)CN1CCN(CCNC(=O)CN(C)C(=O)CN(C)C(=O)CN(C)C(=O)CN(C)C(=O)CN(C)C(=O)CN(C)C(=O)CN(C)C(=O)CN(C)C(=O)CN(C)C(=O)CN(C)C(=O)CN(C)C(=O)CN(C)C(=O)CN(C)C(=O)CN(C)C(=O)CN(C)C(=O)CC[C@H](NC(=O)CC[C@H](NC(=O)CC[C@H](NC(=O)CC[C@H](NC(=O)CCCCCCCCCCCCCCCCCCC(=O)O)C(=O)O)C(=O)O)C(=O)O)C(=O)O)CC1)C(=O)N[C@@H](CCN)C(=O)N(C)[C@@H](C)C(=O)N[C@@H](CCCNC(=N)N)C(=O)NCC(N)=O` [Compound 16, C20DA-gGlu4-Sar15-AEPipAc-Tyr-Phe-NMeLeu-Nle-Dbu-NMeAla-Arg-Gly-NH2] (HELM PEPTIDE1{[O=C(O)CCCCCCCCCCCCCCCCCCC(=O)[*:2]].[gGlu].[gGlu].[gGlu].[gGlu].[Sar].[Sar].[Sar].[Sar].[Sar].[Sar].[Sar].[Sar].[Sar].[Sar].[Sar].[Sar].[Sar].[Sar].[Sar].[O=C(CN1CCN(CCN[*:1])CC1)[*:2]].Y.F.[meL].[Nle].[Dab].[meA].R.G.[am]}$$$$V2.0), for which the EC50 is 11 nM in test [1], above 1000 nM in test [2] and 3.3 nM in test [3].
For the molecule `CCCC[C@H](NC(=O)[C@H](CC(C)C)N(C)C(=O)[C@H](Cc1ccccc1)NC(=O)[C@H](Cc1ccc(O)cc1)NC(=O)CN1CCN(CCNC(=O)CN(C)C(=O)CN(C)C(=O)CN(C)C(=O)CN(C)C(=O)CN(C)C(=O)CN(C)C(=O)CN(C)C(=O)CN(C)C(=O)CN(C)C(=O)CN(C)C(=O)CN(C)C(=O)CN(C)C(=O)CN(C)C(=O)CN(C)C(=O)CN(C)C(=O)CC[C@H](NC(=O)CC[C@H](NC(=O)CC[C@H](NC(=O)CC[C@H](NC(=O)CCCCCCCCCCCCCCCCCCC(=O)O)C(=O)O)C(=O)O)C(=O)O)C(=O)O)CC1)C(=O)N[C@@H](CCCCN)C(=O)N(C)[C@@H](C)C(=O)N[C@@H](CCCNC(=N)N)C(=O)NCC(N)=O` [Compound 18, C20DA-gGlu4-Sar15-AEPipAc-Tyr-Phe-NMeLeu-Nle-Lys-NMeAla-Arg-Gly-NH2] (HELM PEPTIDE1{[O=C(O)CCCCCCCCCCCCCCCCCCC(=O)[*:2]].[gGlu].[gGlu].[gGlu].[gGlu].[Sar].[Sar].[Sar].[Sar].[Sar].[Sar].[Sar].[Sar].[Sar].[Sar].[Sar].[Sar].[Sar].[Sar].[Sar].[O=C(CN1CCN(CCN[*:1])CC1)[*:2]].Y.F.[meL].[Nle].K.[meA].R.G.[am]}$$$$V2.0), the EC50 in test [1] was 34.7 nM; in test [2], above 1000 nM; in test [3], 7 nM.
In the case of `CCCC[C@H](NC(=O)[C@H](CC(C)C)N(C)C(=O)[C@H](Cc1ccccc1)NC(=O)[C@H](Cc1ccc(O)cc1)NC(=O)CN1CCN(CCNC(=O)CN(C)C(=O)CN(C)C(=O)CN(C)C(=O)CN(C)C(=O)CN(C)C(=O)CN(C)C(=O)CN(C)C(=O)CN(C)C(=O)CN(C)C(=O)CN(C)C(=O)CN(C)C(=O)CN(C)C(=O)CC[C@H](NC(=O)CC[C@H](NC(=O)CC[C@H](NC(=O)CC[C@H](NC(=O)CCCCCCCCCCCCCCCCCCC(=O)O)C(=O)O)C(=O)O)C(=O)O)C(=O)O)CC1)C(=O)N[C@@H](CCCCN)C(=O)N(C)[C@@H](C)C(=O)N[C@@H](CCCNC(=N)N)C(=O)NCC(N)=O` [Compound 19, C20DA-gGlu4-Sar12-AEPipAc-Tyr-Phe-NMeLeu-Nle-Lys-NMeAla-Arg-Gly-NH2], the values for the EC50 in test [1], in test [2] and in test [3] were 36.6 nM, 1400 nM and 5.7 nM, respectively.
The corresponding values for `CCCC[C@H](NC(=O)[C@H](CC(C)C)N(C)C(=O)[C@H](Cc1ccccc1)NC(=O)[C@H](Cc1ccc(O)cc1)NC(=O)CN1CCN(CCNC(=O)CN(C)C(=O)CN(C)C(=O)CN(C)C(=O)CN(C)C(=O)CN(C)C(=O)CN(C)C(=O)CN(C)C(=O)CN(C)C(=O)CN(C)C(=O)CN(C)C(=O)CN(C)C(=O)CN(C)C(=O)CN(C)C(=O)CN(C)C(=O)CN(C)C(=O)CC[C@H](NC(=O)CC[C@H](NC(=O)CC[C@H](NC(=O)CCCCCCCCCCCCCCCCCCC(=O)O)C(=O)O)C(=O)O)C(=O)O)CC1)C(=O)N[C@@H](CCCN)C(=O)NCC(=O)N[C@@H](CCCNC(=N)N)C(=O)NCC(N)=O` [Compound 29, C20DA-gGlu3-Sar15-AEPipAc-Tyr-Phe-NMeLeu-Nle-Orn-Gly-Arg-Gly-NH2] (HELM PEPTIDE1{[O=C(O)CCCCCCCCCCCCCCCCCCC(=O)[*:2]].[gGlu].[gGlu].[gGlu].[Sar].[Sar].[Sar].[Sar].[Sar].[Sar].[Sar].[Sar].[Sar].[Sar].[Sar].[Sar].[Sar].[Sar].[Sar].[O=C(CN1CCN(CCN[*:1])CC1)[*:2]].Y.F.[meL].[Nle].[Orn].G.R.G.[am]}$$$$V2.0) are 535 nM, above 1000 nM and 52 nM.
